According to US11628198B2, “Methods for prevention and treatment of acute renal injury” (Cornell University, priority 2008, dated 2023):

How the values were obtained:
Assay type in all cases: in vivo, rat
[1] = tested on: ARI caused by ischemia-reperfusion (I/R); assay: I/R model: renal morphologic examination (H&E, PAS); conditions: 45 min ischemia and 24 h reperfusion
Procedure: (§1) Sprague Dawley rats (250˜300 g) were assigned to four groups: (1) sham surgery group without I/R; (2) I/R+saline vehicle treatment; (3) I/R+SS-20 treatment; (4) I/R+SS-31 treatment. Each experimental group consisted of 8 rats. SS-20 and SS-31 (3 mg/kg, dissolved in saline) were administered to rats 30 min before ischemia and immediately before onset of reperfusion. The control rats were given saline alone on the same schedule.
(§2) Rats were anesthetized with a mixture of ketamine (90 mg/kg, i.p.) and xylazine (4 mg/kg, i.p.). The left renal vascular pedicle was occluded temporarily using a micro-clamp for 30 or 45 min. At the end of the ischemic period, reperfusion was established by removing of the clamp. At that time, the contralateral right kidney was removed. After 24 h reperfusion, animals were sacrificed and blood samples were obtained by cardiac puncture. Renal function was determined by blood urea nitrogen (BUN) and serum creatinine (BioAssay Systems DIUR-500 and DICT-500).
Renal Morphologic Examination: Kidneys were fixed in 10% neutral-buffered formalin and embedded in paraffin wax. Three micron sections were stained with hematoxylin-eosin (H&E) and periodic acid-Schiff (PAS) and analyzed by light microscopy. Lesions were scored using the following criteria: [1] mitosis and necrosis of individual cells; [2] necrosis of all cells in adjacent proximal convoluted tubules with survival of surrounding tubules; [3] necrosis confined to the distal third of the proximal convoluted tubule with a band of necrosis extending across the inner cortex; and [4] necrosis affecting all three segments of the proximal convoluted tubule.

[2] = tested on: ARI caused by ischemia-reperfusion (I/R); assay: I/R model: TUNEL assay for apoptosis; conditions: 30 min ischemia and 24 h reperfusion; 3 mg/kg
Procedure: as §1, §2
TUNEL Assay for Apoptosis: Renal tissue sections were deparaffinized and rehydrated by xylenes, graded alcohol series and deionized H2O, and then incubated in 20 μg/ml proteinase K for 20 min at RT. In situ cell death detection POD kit (Roche, IN, USA) was used according to the manufacturer's instructions. […]

[3] = tested on: ATP content in renal tissue; assay: I/R model: ATP content assay of kidney tissue
Procedure: as §1, §2
ATP Content Assay: The kidney tissue was immediately put into 10 ml 5% trichloroacetic acid with 10 mM DTT, 2 mM EDTA and cut into small pieces. The tissue was homogenized on ice, incubated for another 10 min, centrifuged for 10 min at 2000×g, and neutralized with 10N KOH to pH 7.6. After centrifugation for 10 min at 2000×g, aliquots of the resulting supernatant were stored at −80° C. ATP was measured by bioluminescence (ATP bioluminescent kit, Sigma, MO, USA).

renal mitochondria = assay: I/R model: respiration of isolated renal mitochondria; conditions: after 45 min ischemia, pretreatment
Procedure: Results. The effects of the aromatic-cationic peptides of the invention on a model of ARI caused by ischemia-reperfusion were investigated. Renal mitochondria were isolated in accordance with the procedures described above and oxygen consumption was measured.
State 3 respiration was initiated with the addition of ADP.

[4] = tested on: ARI caused by ureteral obstruction (UUO); assay: 14-day UUO model: renal histology (trichrome, interstitial volume); conditions: obstructed kidney
Procedure: Sprague-Dawley rats underwent unilateral ureteral ligation (UUO) with 4-0 silk suture through a midline abdominal incision under sterile conditions. Ureteral obstruction was carried out by ligating the left ureter at the end of lower ureter, just above the ureterovesical junction.
SS-31 (1 mg/kg or 3 mg/kg; n=8) was administered intraperitoneally, one day prior to UUO and continuing for 14 days. A separate group of animals was given saline, as a vehicle control (n=16).
Renal Histology: Trichrome sections of paraffin embedded specimens were examined by a board-certified pathologist (SVS, renal pathology specialist), and fibrosis scored on a scale of 0-+++.

[5] = tested on: radiocontrast dye-induced renal failure; assay: CIN, indomethacin/L-NAME model, Experiment 2
Procedure: Animal model: The same indomethacin and L-NAME model described above was used in this experiment. In this model, impaired renal function was induced by the administration of indomethacin (8 mg/kg) and L-NAME (10 mg/kg).
Renal function: Renal function was assessed by determining serum and urinary creatinine using DICT-kit from Bioassays Systems (Hayward, Calif.) at baseline and 26 h following dye administration. Urinary protein concentration was also determined at baseline and 26 h following dye administration by BCA Protein Assay kit (Thermo Scientific, Rockford, Ill.). Samples were analyzed by students t-test and differences were considered significant at p<0.05.
Renal Histology: Kidneys were fixed in 10% neutral-buffered formalin and embedded in paraffin wax. Three micron sections were stained with hematoxylin-eosin (H&E) and periodic acid-Schiff (PAS) and analyzed by light microscopy by a board certified pathologist.

[6] = tested on: CIN in glycerol-induced rhabdomyolysis animal model; assay: CIN in glycerol-induced rhabdomyolysis model, Experiment 2
Procedure: SD rats with body weight of 300-400 grams were dehydrated for 24 h followed by i.m. injection with 25% glycerol solution (v/v) at the dose of 10 ml/kg. Twenty-four hours later, the rats were grouped and subjected to contrast induced nephropathy study protocol. Sixteen SD rats with body weight of 300-350 g were randomized into three groups with the doses, dosing schedules and study protocol presented in FIG. 23. The effects of SS-31 on ARI can be examined by comparing the renal functions in animals from group A with that from group B. Samples were analyzed by Student's t-test and differences were considered significant at p<0.05.
Renal function: Renal function was assessed by determining serum and urinary creatinine using Jiancheng Cr kit (Nanjing, P.R.C) at baseline, 24 h after dehydration and 48 h post the contrast dye administration. The creatinine clearance was calculated based on the Scr, Ucr and urinary volume. Urinary protein concentration was determined by Bradford Protein Assay kit (Sigma, St. Louis, Mo.).

[7] = 26 h post contrast dye vs baseline

In the case of D-Arg-2′6′Dmt-Lys-Phe-NH2 [SS-31], the histopathological score [1] is reported as “significantly improved histopathological score”, the “tubular cell injury (H&E, PAS)” value [1] is reported as “protected brush border and prevented necrosis in the proximal tubules” and the “TUNEL-positive cells in the medulla (tubular cell apoptosis)” value [2] is reported as “significantly prevented TUNEL-positive cells”. For the same substance, the “ATP content in renal tissue” value ([3]; 1 h reperfusion following 45 min ischemia, vs vehicle) was “significantly higher”, the “ATP content in renal tissue” value ([3]; end of 15 min ischemia) was “not altered” and the “renal mitochondrial oxygen consumption (state 3 respiration)” value (renal mitochondria) was “significantly improved oxygen consumption”. For the same substance, the “trichrome staining (fibrosis), cortex” value [4] was 0-trace, the “trichrome staining (fibrosis), medulla” value [4] was “tr− 1+” and the medullary interstitial volume ([4]; 1 mg/kg i.p. daily) was 54.9±2.3%. The medullary interstitial volume ([4]; higher dose) was “also effective”, the SCr ([5]; 1 day (26 h post dye)) was 0.73 ± 0.04 mg/dL and the “U protein BCA” value ([5]; 1 day (26 h post dye)) was 11.76 ± 2.71 mg/mL. For the same substance, the Ucr ([5]; 1 day (26 h post dye)) was 38.12 ± 8.19 mg/dL, the Scr increase [5, 7] was 9% and the “urinary protein concentration increase” value [5, 7] was 1.7 fold. For the same substance, the “rats protected from contrast dye induced nephropathy (Scr increase less than 25% at 26 h post dye)” value ([5]; 26 h post dye) was “Five out of seven”, the SCr ([5]; Baseline) was 0.67 ± 0.09 mg/dL and the “U protein BCA” value ([5]; Baseline) was 4.28 ± 1.15 mg/mL. For the same substance, the Ucr ([5]; Baseline) was 15.54 ± 3.87 mg/dL, the “PAS staining of kidney” value ([5]; dye-injected) was “intact brush borders and normal glomeruli” and the “reduction of creatinine clearance” value ([6]; 48 h post dye) was 13%. For the same substance, the “24 h urinary protein level” value ([6]; T0 (24 h post glycerin), no peptide yet) was 50.2 ± 8.6 mg, the “24 h urinary protein level” value ([6]; T1 (48 h post glycerin and 24 hrs post dye)) was 39.5 ± 3.5 mg and the “24 h urinary protein level” value ([6]; Tb (baseline), no peptide yet) was 15.5 ± 1.5 mg. The “PAS staining of kidney” value ([6]; glycerin, dye) was “intact brush borders, normal glomeruli and minimum protein cast in the tubular cells”.
